The subject of the test is HT-29 cells. Briefly: HT29 cells 0FBS assay in vitro: TNF-α/SMAC mimetic/zVAD-FMK induced necroptosis, CellTiter-Glo cell viability (RIP1 inhibitory activity). Type of test: cell-based. The conditions noted are these: Homo sapiens, FBS free medium, TNF-α (10 ng/ml) + SMAC mimetic (6 uM) + zVAD-FMK (10 μM), 20 hours, geometric mean EC50. In outline:
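HT-29 cells (5,000/well, overnight) switched to FBS-free McCOY's 5A with TNF-α (10 ng/ml), SMAC mimetic (6 uM) and zVAD-FMK (10 μM) to drive necroptosis, plus compound, for 20 hours at 37° C. Viability read by CellTiter-Glo luminescence; geometric mean EC50 from 10-point duplicate dose-response.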
For orientation: ATP-based viability assays read luminescence as a measure of living cells.
By EC50 is commonly meant the concentration at which the effect is half-maximal. Take `Cc1nn(-c2cc(OC3CN(C(=O)N4N=CC[C@H]4c4cc(F)cc(F)c4)C3)c(Cl)cn2)c(C)c1C(N)=O` [Compound 160, (S)-1-(5-chloro-4-((1-(5-(3,5-difluorophenyl)-4,5-dihydro-1H-pyrazole-1-carbonyl)azetidin-3-yl)oxy)pyridin-2-yl)-3,5-dimethyl-1H-pyrazole-4-carboxamide]: the EC50 is 0.1 to 100 nM.

`Cc1nn(-c2cc(OC3CN(C(=O)N4N=CC[C@H]4c4ccccc4)C3)c(F)cn2)c(C)c1C(N)=O` [Compound 71, (S)-1-(5-fluoro-4-((1-(5-phenyl-4,5-dihydro-1H-pyrazole-1-carbonyl)azetidin-3-yl)oxy)pyridin-2-yl)-3,5-dimethyl-1H-pyrazole-4-carboxamide]: the EC50 lay in the range of 0.1 to 100 nM.

`Cc1nc(C2CC=NN2C(=O)N2CC(Oc3cc(-c4c(C)cnn4C)ncc3Cl)C2)cs1` (stereo not shown) [Compound 127, (3-((5-chloro-2-(1,4-dimethyl-1H-pyrazol-5-yl)pyridin-4-yl)oxy)azetidin-1-yl)(5-(2-methylthiazol-4-yl)-4,5-dihydro-1H-pyrazol-1-yl)methanone]: the EC50 was 1000 to 10000 nM.

For `Cc1nn(-c2cc(OC3CN(C(=O)N4N=CC[C@H]4c4cncc(F)c4)C3)c(F)cn2)c(C)c1C(N)=O` [Compound 63, (S)-1-(5-fluoro-4-((1-(5-(5-fluoropyridin-3-yl)-4,5-dihydro-1H-pyrazole-1-carbonyl)azetidin-3-yl)oxy)pyridin-2-yl)-3,5-dimethyl-1H-pyrazole-4-carboxamide], the EC50 was 100 to 1000 nM.

`Cc1nn(-c2cc(OC3CN(C(=O)N4N=CC[C@@H]4c4cc(F)cc(F)c4F)C3)c(F)cn2)c(C)c1C(=O)O` [Compound 105, (R)-1-(5-fluoro-4-((1-(5-(2,3,5-trifluorophenyl)-4,5-dihydro-1H-pyrazole-1-carbonyl)azetidin-3-yl)oxy)pyridin-2-yl)-3,5-dimethyl-1H-pyrazole-4-carboxylic acid]: the EC50 was 1000 to 10000 nM.

Take `Cn1ccnc1-c1cc(OC2CN(C(=O)N3N=CC[C@H]3c3cncc(C#N)c3)C2)c(F)cn1` [Compound 38, (S)-5-(1-(3-((5-fluoro-2-(1-methyl-1H-imidazol-2-yl)pyridin-4-yl)oxy)azetidine-1-carbonyl)-4,5-dihydro-1H-pyrazol-5-yl)nicotinonitrile]: the half-maximal effective concentration (EC50) lay within 100 to 1000 nM.

Turning to `Cc1c(-c2cc(OC3CN(C(=O)N4N=CC[C@H]4c4cc(F)cc(F)c4F)C3)c(F)cn2)nn(C)c1C(N)=O` [Compound 126, 3-(5-fluoro-4-((1-(5-(2,3,5-trifluorophenyl)-4,5-dihydro-1H-pyrazole-1-carbonyl)azetidin-3-yl)oxy)pyridin-2-yl)-1,4-dimethyl-1H-pyrazole-5-carboxamide], the EC50 lay in the range of 0.1 to 100 nM.

For the compound `Cc1cnn(C)c1-c1cc(OC2CN(C(=O)N3N=CCC3c3ccccn3)C2)c(F)cn1` (stereo not shown) [Compound 100, (3-((2-(1,4-dimethyl-1H-pyrazol-5-yl)-5-fluoropyridin-4-yl)oxy)azetidin-1-yl)(5-(pyridin-2-yl)-4,5-dihydro-1H-pyrazol-1-yl)methanone], the EC50 lay in the range of 0.1 to 100 nM.

In the case of `Cn1ncc(Cl)c1-c1cc(OC2CN(C(=O)N3N=CC[C@H]3c3cc(F)cc(C#N)c3)C2)c(F)cn1` [Compound 6, (S)-3-(1-(3-((2-(4-chloro-1-methyl-1H-pyrazol-5-yl)-5-fluoropyridin-4-yl)oxy)azetidine-1-carbonyl)-4,5-dihydro-1H-pyrazol-5-yl)-5-fluorobenzonitrile], the EC50 lay within 0.1 to 100 nM.

Take `Cc1nn(-c2cc(OC3CN(C(=O)N4N=CC[C@@H]4c4cc(F)cc(F)c4F)C3)c(F)cn2)c(C)c1S(N)(=O)=O` [Compound 125, (R)-1-(5-fluoro-4-((1-(5-(2,3,5-trifluorophenyl)-4,5-dihydro-1H-pyrazole-1-carbonyl)azetidin-3-yl)oxy)pyridin-2-yl)-3,5-dimethyl-1H-pyrazole-4-sulfonamide]: the EC50 lay in the range of 100 to 1000 nM.

As to `Cc1nn(C)c(C)c1-c1cc(OC2CN(C(=O)N3N=CC[C@H]3c3cc(F)cc(C#N)c3)C2)c(F)cn1` [Compound 47, (S)-3-fluoro-5-(1-(3-((5-fluoro-2-(1,3,5-trimethyl-1H-pyrazol-4-yl)pyridin-4-yl)oxy)azetidine-1-carbonyl)-4,5-dihydro-1H-pyrazol-5-yl)benzonitrile], the EC50 was 0.1 to 100 nM.

Consider `Cc1c(N)nn(C)c1-c1cc(OC2CN(C(=O)N3N=CC[C@H]3c3cncc(F)c3)C2)c(F)cn1` [Compound 61, (S)-(3-((2-(3-amino-1,4-dimethyl-1H-pyrazol-5-yl)-5-fluoropyridin-4-yl)oxy)azetidin-1-yl)(5-(5-fluoropyridin-3-yl)-4,5-dihydro-1H-pyrazol-1-yl)methanone], for which the EC50 was in the range of 0.1 to 100 nM.

With `Cc1nc(C#N)c(C)n1-c1cc(OC2CN(C(=O)N3N=CC[C@H]3c3cncc(F)c3)C2)c(F)cn1` [Compound 68, (S)-1-(5-fluoro-4-((1-(5-(5-fluoropyridin-3-yl)-4,5-dihydro-1H-pyrazole-1-carbonyl)azetidin-3-yl)oxy)pyridin-2-yl)-2,5-dimethyl-1H-imidazole-4-carbonitrile], the concentration for a half-maximal effect (EC50) lay within 100 to 1000 nM.

For the compound `Cn1nccc1-c1ncc(F)c(OC2CN(C(=O)N3N=CC[C@H]3c3cncc(F)c3)C2)n1` [Compound 2, (S)-(3-((5-fluoro-2-(1-methyl-1H-pyrazol-5-yl)pyrimidin-4-yl)oxy)azetidin-1-yl)(5-(5-fluoropyridin-3-yl)-4,5-dihydro-1H-pyrazol-1-yl)methanone], the EC50 lay in the range of 0.1 to 100 nM.

Take `Cc1c(C#N)nn(C)c1-c1cc(OC2CN(C(=O)N3N=CC[C@H]3c3cncc(F)c3)C2)c(F)cn1` [Compound 65, (S)-5-(5-fluoro-4-((1-(5-(5-fluoropyridin-3-yl)-4,5-dihydro-1H-pyrazole-1-carbonyl)azetidin-3-yl)oxy)pyridin-2-yl)-1,4-dimethyl-1H-pyrazole-3-carbonitrile]: the EC50 was 0.1 to 100 nM.

Consider `Cc1cc(F)cc([C@H]2CC=NN2C(=O)N2CC(Oc3cc(-n4nc(C)c(C(N)=O)c4C)ncc3F)C2)c1` [Compound 136, (R)-1-(5-fluoro-4-((1-(5-(3-fluoro-5-methylphenyl)-4,5-dihydro-1H-pyrazole-1-carbonyl)azetidin-3-yl)oxy)pyridin-2-yl)-3,5-dimethyl-1H-pyrazole-4-carboxamide], for which the EC50 lay in the range of 100 to 1000 nM.

Regarding `Cc1cc(F)cc([C@H]2CC=NN2C(=O)N2CC(Oc3cc(-n4nc(C)c(C(=O)O)c4C)ncc3F)C2)c1` [Compound 143, (R) 1-(5-fluoro-4-((1-(5-(3-fluoro-5-methylphenyl)-4,5-dihydro-1H-pyrazole-1-carbonyl)azetidin-3-yl)oxy)pyridin-2-yl)-3,5-dimethyl-1H-pyrazole-4-carboxylic acid], the EC50 lay within 100 to 1000 nM.

Regarding `Cc1cnn(C)c1-c1ncc(F)c(OC2CN(C(=O)N3N=CC[C@H]3c3cncc(C#N)c3)C2)n1` [Compound 33, (S)-5-(1-(3-((2-(1,4-dimethyl-1H-pyrazol-5-yl)-5-fluoropyrimidin-4-yl)oxy)azetidine-1-carbonyl)-4,5-dihydro-1H-pyrazol-5-yl)nicotinonitrile], the EC50 was in the range of 0.1 to 100 nM.

As to `Cc1nn(-c2cc(OC3CN(C(=O)N4N=CC[C@H]4c4cccc(F)c4)C3)c(F)cn2)c(C)c1C(N)=O` [Compound 73, (S)-1-(5-fluoro-4-((1-(5-(3-fluorophenyl)-4,5-dihydro-1H-pyrazole-1-carbonyl)azetidin-3-yl)oxy)pyridin-2-yl)-3,5-dimethyl-1H-pyrazole-4-carb oxamide], the EC50 lay within 0.1 to 100 nM.

Values taken from patent US20240294508A1, “RIP1 MODULATORS INCLUDING AZETIDINE CYCLIC UREAS, PREPARATIONS, AND USES THEREOF” (SIRONAX LTD., priority 2021, published 2024).
